Several values for one entry are separate records, joined by “and”; a condition that tells them apart may be missing. Identical values can stand only once.
Legend:
[1] = system: morphine place preference; assay: Morphine conditioned place preference, model of addiction (Example 25); details: mice, morphine groups, IP; CBD 2.5-20.0 mg/kg, CBD-val-HS 10.0 mg/kg
[2] = Organ distribution of CBD-Mono-VHS after oral administration (Example 19); type: in vivo, rats; details: rat, oral 4 mg/animal
[3] = system: cisplatin-induced tactile allodynia; assay: Cisplatin-induced tactile allodynia model, electronic von Frey (Examples 23, 24); type: in vivo, C57BL/6 mice; details: Example 24, mice; for Doses with mean withdrawal thresholds significantly higher compared to vehicle: ps≤0.0001
[4] = Bioavailability of CBD-Mono-VHS from a lipophilic suppository (Example 16); type: in vivo; parameters: unit not given here; details: rats, rectal 7.5 mg, Lipophilic (Wecobee M) Suppository; for Plasma Concentration of CBD-Mono-VHS: individual animals
Description: CBD-Mono-Val-Mono-HS was formulated in Wecobee M suppository base (a triglyceride lipophilic base) at 75 mg/mL of melted base. The study was carried out in a cannulated rat model. Three animals were administered 100 μl. each of the semisolid formulation for a rectal dose of 7.5 mg CBD-Mono-VHS. This is followed by collection of blood samples (250 μl.) at each data point (0, 0.25, 0.5, 1, 2, 4, 6, and 24 hr.). The blood was centrifuged and the plasma was used for LC-MS/MS analysis.

[5] = Plasma and organ concentrations of CBD and CBD-Mono-VHS after IP administration (Example 22); type: in vivo; details: mice
Description: CBD-Mono-VHS was administered intraperitoneally to mice at 2 doses (30 μg and 60 μg equivalent of CBD/mouse). Seventy minutes after dosing the animals (3 mice in each dose group), all animals were sacrificed. Blood, as well as organs (liver, spleen, kidney, and brain), were harvested for LC-MS/MS analysis of their content of both CBD and CBD-Mono-VHS.
Also shown is the concentration of CBD-Mono-VHS in the plasma 70 minutes after dosing.

[6] = IP CBD-Mono-VHS, High Dose (60 μg CBD/mouse), 70 Minutes, AVG.
[7] = IP CBD-Mono-VHS, High Dose (60 μg CBD/mouse), 70 Minutes, individual animals

C=C(C)C1CCC(C)=CC1c1c(O)cc(CCCCC)cc1OC(=O)[C@@H](NC(=O)CCC(=O)O)C(C)C (stereo partly shown) [CBD-Mono-VHS, CBD-Mono-Valinate-Mono-Hemisuccinate]
Effect on morphine place preference, in words [1]: significantly (P=0.005) blocked the addictive effects of morphine | Organ level of CBD-Mono-VHS, KIDNEY ([2]; 2 HR): 353 ng/organ | Organ level of CBD-Mono-VHS, KIDNEY ([2]; 4 HR): 115 ng/organ | Effect on cisplatin-induced tactile allodynia (eVF paw withdrawal), in words ([3]; 1.0 to 4.0 mg/kg (CBD equivalent) IP alone): dose-dependent attenuation of tactile allodynia that equal 2.5 mg/kg morphine at 3.0 and 4.0 mg/kg | Effect on cisplatin-induced tactile allodynia (eVF paw withdrawal), in words ([3]; 1.0 to 4.0 mg/kg (CBD equivalent) in combination with 0.1 mg/kg morphine, IP): shifted this dose response curve to the left where 2.0 mg/kg CBD-Mono-VHS attenuated tactile allodynia equal to that of 2.5 mg/kg morphine | Doses with mean withdrawal thresholds significantly higher compared to vehicle ([3]; IP alone): 2.0 to 4.0 mg/kg | Doses with mean withdrawal thresholds significantly higher compared to vehicle ([3]; IP, combination with 0.1 mg/kg morphine): 1.0 to 4.0 mg/kg | Plasma Concentration of CBD-Mono-VHS, Average ([4]; 0 hr): 0.0 | Plasma Concentration of CBD-Mono-VHS ([4]; 0 hr): 0.0 | Plasma Concentration of CBD-Mono-VHS, Average ([4]; 0.25 hr): 6.0 | Plasma Concentration of CBD-Mono-VHS ([4]; 0.25 hr): 7.1 (2×) and 3.9 | Plasma Concentration of CBD-Mono-VHS, Average ([4]; 0.5 hr): 11.1 | Plasma Concentration of CBD-Mono-VHS ([4]; 0.5 hr): 9.0 and 12.8 and 11.6 | Plasma Concentration of CBD-Mono-VHS, Average ([4]; 1 hr): 15.5 | Plasma Concentration of CBD-Mono-VHS ([4]; 1 hr): 14.1 and 13.8 and 18.5 | Plasma Concentration of CBD-Mono-VHS, Average ([4]; 2 hr): 20.6 | Plasma Concentration of CBD-Mono-VHS ([4]; 2 hr): 12.7 and 14.5 and 34.6 | Plasma Concentration of CBD-Mono-VHS, Average ([4]; 4 hr): 31.5 | Plasma Concentration of CBD-Mono-VHS ([4]; 4 hr): 22.0 and 27.5 and 45.1 | Plasma Concentration of CBD-Mono-VHS, Average ([4]; 6 hr): 39.8 | Plasma Concentration of CBD-Mono-VHS ([4]; 6 hr): 24.8 and 41.6 and 53.0 | Plasma Concentration of CBD-Mono-VHS, Average ([4]; 24 hr): 17.2 | Plasma Concentration of CBD-Mono-VHS ([4]; 24 hr): 7.3 and 44.3 | Blood brain barrier passage, in words ([5]; IP 30 and 60 μg, 70 minutes): crosses the blood brain barrier | Organ concentrations after IP administration, in words ([5]; IP 30 and 60 μg, 70 minutes): high concentrations of the drug in all organs tested in a dose proportional manner | CBD Plasma Concentration, AVG. [5, 6]: 0.00 ng/mL | Total CBD, Brain, AVG. [5, 6]: 0.95 ng | Total CBD, Kidney, AVG. [5, 6]: 11.15 ng | Total CBD, Liver, AVG. [5, 6]: 295.11 ng | Total CBD, Spleen, AVG. [5, 6]: 64.42 ng | Total CBD, Total, AVG. ([5]; IP CBD-Mono-VHS, High Dose (60 μg CBD/mouse), 70 Minutes, AVG., sum of the columns): 371.63 ng | CBD Plasma Concentration [5, 7]: 0.00 ng/mL | Total CBD, Brain [5, 7]: 0.00 ng (2×) and 2.86 ng | Total CBD, Kidney [5, 7]: 18.50 ng and 14.96 ng and 0.00 ng | Total CBD, Liver [5, 7]: 319.91 ng and 195.66 ng and 369.75 ng | Total CBD, Spleen [5, 7]: 93.63 ng and 99.63 ng and 0.00 ng | Total CBD, Total ([5]; IP CBD-Mono-VHS, High Dose (60 μg CBD/mouse), 70 Minutes, individual animals, sum of the columns): 432.04 ng and 310.25 ng and 372.61 ng

Source: patent US11337950B2, “Biologically active cannabidiol analogs” (University of Mississippi, priority 2016, dated 2022)
